Data on 32 compounds can be found in patent US20050090529A1, “3,5 Disubstituted indazole compounds with nitrogen-bearing 5-membered heterocycles, pharmaceutical compositions, and methods for mediating or inhibiting cell proliferation” (PFIZER INC, priority 2003, published 2005).

The assay has as its system Cyclin-dependent kinase. Briefly: Cyclin-dependent kinase inhibition, % inhibition at 10 nM (library Examples 99-270). To be noted: 10 nM compound. Type of assay: biochemical. The protocol:
Cyclin-dependent kinase activity was measured by quantifying the enzyme-catalyzed, time-dependent incorporation of radioactive phosphate from [^32P]ATP or [^33P]ATP into a protein substrate. Unless noted otherwise, assays were performed in 96-well plates in a total volume of 50 μL, in the presence of 10 mM HEPES (N-[2-hydroxyethyl]piperazine-N′-[2-ethanesulfonic acid]) (pH 7.4), 10 mM MgCl2, 25 μM adenosine triphosphate (ATP), 1 mg/mL ovalbumin, 5 μg/mL leupeptin, 1 mM dithiothreitol, 10 mM beta-glycerophosphate, 0.1 mM sodium vanadate, 1 mM sodium fluoride, 2.5 mM ethylene glycol-bis(β-aminoethyl ethKer)-N,N,N′N′-tetraacetic acid (EGTA), 2% (v/v) dimethylsulfoxide, and 0.03-0.4 μCi [^32/33P]ATP per reaction. Reactions were initiated with enzyme, incubated at 30° C., and terminated after 20 minutes by the addition of ethylenediaminetetraacetic acid (EDTA) to 250 mM. The phosphorylated substrate was then captured on a nitrocellulose or phosphocellulose membrane using a 96-well filtration manifold, and unincorporated radioactivity was removed by repeated washing with 0.85% phosphoric acid. Radioactivity was quantified by exposing the dried membranes to a phosphorimager.
Results of assays performed on compounds, which include the specific examples described above are provided in Examples 99-274 above, and in Table 1 below. Unless indicated otherwise in a particular entry, the units and assays used are as indicated in the applicable column of the table.
Take `CCNCc1cncc(-c2ccc3[nH]nc(-c4ncc(C(=O)NCCCn5ccnc5)[nH]4)c3c2)c1C` [Example 99, 2-(5-{5-[(ethylamino)methy]-4-methylpyridin-3-yl}-1H-indazol-3-yl)-N-[3-(1H-imidazol-1-yL)propyl]-1H-imidazole-5-carboxamide]: the “% Inhib @ 10 nM” value amounted to 39%. The figure for `CCNCc1cncc(-c2ccc3[nH]nc(-c4ncc(C(=O)NC(C)CO)[nH]4)c3c2)c1C` (centres unmarked) [Example 100] is 65%; for `CCNCc1cncc(-c2ccc3[nH]nc(-c4ncc(C(=O)NCc5cccnc5)[nH]4)c3c2)c1C` [Example 101] it is 54%.

With `CCNCc1cncc(-c2ccc3[nH]nc(-c4ncc(C(=O)NCCc5ccccn5)[nH]4)c3c2)c1C` [Example 102], the “% Inhib @ 10 nM” value was found to be 81%. The figure for `CCNCc1cncc(-c2ccc3[nH]nc(-c4ncc(C(=O)NCCN5CCOCC5)[nH]4)c3c2)c1C` [Example 103, 2-(5-{5-[(ethylamino)methyl]-4-methylpyridin-3-yl}-1H-indazol-3-yl)-N-(2-morpholin-4-ylethyl)-1H-imidazole-5-carboxamide] is 40%.

In the case of `CCNCc1cncc(-c2ccc3[nH]nc(-c4ncc(C(=O)NCCOCCO)[nH]4)c3c2)c1C` [Example 104], the “% Inhib @ 10 nM” value amounted to 54%. The same measure for `CCNCc1cncc(-c2ccc3[nH]nc(-c4ncc(C(=O)N[C@H](c5ccccc5)[C@@H](O)c5ccccc5)[nH]4)c3c2)c1C` [Example 105, 2-(5-{5-[(ethylamino)methyl]-4-methylpyridin-3-yl}-1H-indazol-3-yl)-N-[(1R,2S)-2-hydroxy-1,2-diphenylethyl]-1H-imidazole-5-carboxamide]: 74%; for `CCNCc1cncc(-c2ccc3[nH]nc(-c4ncc(C(=O)NCc5ccccc5OC)[nH]4)c3c2)c1C` [Example 106]: 78%; for `CCNCc1cncc(-c2ccc3[nH]nc(-c4ncc(C(=O)N5CCC(n6c(=O)[nH]c7ccccc76)CC5)[nH]4)c3c2)c1C` [Example 107]: 59%.

Regarding `CCNCc1cncc(-c2ccc3[nH]nc(-c4ncc(C(=O)N[C@H](Cc5ccccc5)C(N)=O)[nH]4)c3c2)c1C` [Example 108, N-{[2-(5-{5-[(ethylamino)methyl]-4-methylpyridin-3-yl}-1H-indazol-3-yl)-1H-imidazol-5-yl]carbonyl}-D-phenylalaninamide], the “% Inhib @ 10 nM” value stood at 57%.

For the compound `CCNCc1cncc(-c2ccc3[nH]nc(-c4ncc(C(=O)NCC(N)=O)[nH]4)c3c2)c1C` [Example 109, N-(2-amino-2-oxoethyl)-2-(5-{5-[(ethylamino)methyl]-4-methylpyridin-3-yl}-1H-indazol-3-yl)-1H-imidazole-5-carboxamide], the “% Inhib @ 10 nM” value is on record as 69%. The same measure for `CCNCc1cncc(-c2ccc3[nH]nc(-c4ncc(C(=O)NCC5CCCO5)[nH]4)c3c2)c1C` (centres unmarked) [Example 110, 2-(5-{5-[(ethylamino)methyl]-4-methylpyridin-3-yl}-1H-indazol-3-yl)-N-(tetrahydrofuran-2-ylmethyl)-1H-imidazole-5-carboxamide]: 66%. With `CCNCc1cncc(-c2ccc3[nH]nc(-c4ncc(C(=O)N[C@@H](CO)[C@@H](O)c5ccc(SC)cc5)[nH]4)c3c2)c1C` [Example 111, 2-(5-{5-[(ethylamino)methyl]-4-methylpyridin-3-yl}-1H-indazol-3-yl)-N-{(1S,2S)-2-hydroxy-1-(hydroxymethyl)-2-[4-(methylthio)phenyl]ethyl}-1H-imidazole-5-carboxamide], the “% Inhib @ 10 nM” value is 73%. The same measure for `CCNCc1cncc(-c2ccc3[nH]nc(-c4ncc(C(=O)N5CCC(O)(c6ccccc6)CC5)[nH]4)c3c2)c1C` [Example 112, 1-{[2-(5-{5-[(ethylamino)methyl]-4-methylpyridin-3-yl}-1H-indazol-3-yl)-1H-imidazol-5-yl]carbonyl}-4-phenylpiperidin-4-ol]: 80%. The figure for `CCNCc1cncc(-c2ccc3[nH]nc(-c4ncc(C(=O)N5CCC(C#N)(c6ccccc6)CC5)[nH]4)c3c2)c1C` [Example 113, 1-{[2-(5-{5-[(ethylamino)methyl]-4-methylpyridin-3-yl}-1H-indazol-3-yl)-1H-imidazol-5-yl]carbonyl}-4-phenylpiperidine-4-carbonitrile] is 61%. On to `CCNCc1cncc(-c2ccc3[nH]nc(-c4ncc(C(=O)NCCc5cccc(OC)c5)[nH]4)c3c2)c1C` [Example 114, 2-(5-{5-[(ethylamino)methyl]-4-methylpyridin-3-yl}-1H-indazol-3-yl)-N-[2-(3-methoxyphenyl)ethyl]-1H-imidazole-5-carboxamide], for which the “% Inhib @ 10 nM” value came to 64%.

In the case of `CCNCc1cncc(-c2ccc3[nH]nc(-c4ncc(C(=O)N5CCN(c6ccccn6)CC5)[nH]4)c3c2)c1C` [Example 115, ethyl{[4-methyl-5-(3-{5-[(4-pyridin-2-piperazin-1-yl)carbonyl]-1H-imidazol-yl}-1H-indazol-5-yl)pyridin-3-yl]methyl}amine], the “% Inhib @ 10 nM” value came out at 72%. Take `CCNCc1cncc(-c2ccc3[nH]nc(-c4ncc(C(=O)N5CCN(C(C)=O)CC5)[nH]4)c3c2)c1C` [Example 116]: the “% Inhib @ 10 nM” value came to 66%.

As for `CCNCc1cncc(-c2ccc3[nH]nc(-c4ncc(C(=O)N5CCN(Cc6ccccc6)CC5)[nH]4)c3c2)c1C` [Example 117], the “% Inhib @ 10 nM” value was found to be 72%. In the case of `CCNCc1cncc(-c2ccc3[nH]nc(-c4ncc(C(=O)N5CCN(CC(=O)NC(C)C)CC5)[nH]4)c3c2)c1C` [Example 118, 2-(4-{[2-(5-{5-[(ethylamino)methyl]-4-methylpyridin-3-yl}-1H-indazol-3-yl)-1H-imidazol-5-yl]carbonyl}piperazin-1-yl)-N-isopropylacetamide], the “% Inhib @ 10 nM” value came out at 44%. The same measure for `CCNCc1cncc(-c2ccc3[nH]nc(-c4ncc(C(=O)N5CCCN(C)CC5)[nH]4)c3c2)c1C` [Example 119, ethyl{(4-methyl-5-(3-{5-[(4-methyl-1,4-diazepan-1-yl)carbonyl]-1H-imidazol-2-yl}-1H-indazol-5-yl)pyridin-3-yl]methyl}amine]: 38%. The figure for `CCNCc1cncc(-c2ccc3[nH]nc(-c4ncc(C(=O)NCCc5c[nH]c6cc(OC)ccc56)[nH]4)c3c2)c1C` [Example 120] is 45%. The same measure for `CCNCc1cncc(-c2ccc3[nH]nc(-c4ncc(C(=O)N5CCc6cc(OC)c(OC)cc6C5)[nH]4)c3c2)c1C` [Example 121, {[5-(3-{5-[(6,7-dimethoxy-3,4-dihydroisoquinolin-2(1H)-yl)carbonyl}-1H-imidazol-2-yl}-1H-indazol-5-yl)-4-methylpyridin-3-yl]methyl)ethylamine]: 69%; for `CCNCc1cncc(-c2ccc3[nH]nc(-c4ncc(C(=O)N(C)CCCN(C)C)[nH]4)c3c2)c1C` [Example 122]: 30%.

Take `CCNCc1cncc(-c2ccc3[nH]nc(-c4ncc(C(=O)N(CCN(C)C)Cc5ccccc5)[nH]4)c3c2)c1C` [Example 123, N-benzyl-N-[2-(dimethylamino)ethyl]-2-(5-{5-[(ethylamino)methyl]-4-methylpyridin-3-yl}-1H-indazol-3-yl)-1H-imidazale-5-carboxamide]: the “% Inhib @ 10 nM” value stood at 54%. Take `CCNCc1cncc(-c2ccc3[nH]nc(-c4ncc(C(=O)N(CCO)Cc5ccccc5)[nH]4)c3c2)c1C` [Example 124, N-benzyl-2-(5-{5-[(ethylamino)methyl]-4-methylpyridin-3-yl}-1H-indazol-3-yl)-N-(2-hydroxyethyl)-1H-imidazole-5-carboxamide]: the “% Inhib @ 10 nM” value is on record as 56%. The same measure for `CCNCc1cncc(-c2ccc3[nH]nc(-c4ncc(C(=O)N5CCN(CCO)CC5)[nH]4)c3c2)c1C` [Example 125, 2-(4-{[2-(5-{5-[(ethylamino)methyl]-4-methylpyridin-3-yl}-1H-indazol-3-yl)-1H-imidazol-5-yl]carbonyl}piperazin-1-yl)ethanol]: 40%; for `CCNCc1cncc(-c2ccc3[nH]nc(-c4ncc(C(=O)NC5C6CC7CC(C6)CC5C7)[nH]4)c3c2)c1C` (centres unmarked) [Example 126, N-2-adamantyl-2-(5-{5-[(ethylamino)methyl]-4-methylpyridin-3-yl}-1H-indazol-3-yl)-1H-imidazole-5-carboxamide]: 89%; for `CCNCc1cncc(-c2ccc3[nH]nc(-c4ncc(C(=O)N5CCN(CC(=O)N6CCOCC6)CC5)[nH]4)c3c2)c1C` [Example 127, ethyl({4-methyl-5-[3-(5-{[4-(2-morpholin-4-yl-2-oxoethyl)piperazin-1-yl]carbonyl}-1H-imidazol-2-yl)-1H-indazol-5-yl]pyridin-3-yl}methyl)amine]: 26%. The figure for `CCNCc1cncc(-c2ccc3[nH]nc(-c4ncc(C(=O)N5CCC(NC(C)=O)C5)[nH]4)c3c2)c1C` (centres unmarked) [Example 129] is 55%; for `CCNCc1cncc(-c2ccc3[nH]nc(-c4ncc(C(=O)NCCCN5CCCC5=O)[nH]4)c3c2)c1C` [Example 130] it is 28%; for `CCNCc1cncc(-c2ccc3[nH]nc(-c4ncc(C(=O)NCCC5=CCCCC5)[nH]4)c3c2)c1C` [Example 131] it is 57%.
